According to a melting point compilation (Tetko et al.; mined from patent text by program, amines drawn as free bases though some values may be those of a salt):

melting point	SMILES
94 to 95 °C	CS(=O)(=O)Oc1ccccc1S(=O)(=O)Cl
175 to 176 °C	CS(=O)c1ccc(-n2cnnn2)cc1 (centres undefined)
105 to 109 °C	O=C(c1cccs1)c1scc(Br)c1Br
154 to 156 °C	O=C(O)c1[nH]c(-c2ccoc2)cc1-c1ccc(O)cc1
202 °C	O=C(Nc1cscc1S(=O)(=O)c1ccc(Cl)cc1)N[C@@H](Cc1ccc(NC(=O)c2c(Cl)cccc2Cl)cc1)C(=O)O
137 to 138 °C	CC(C)(C)n1c(Cl)c(-c2ccc(Oc3ccccc3)cc2)c2c(N)ncnc21
265 to 269 °C	CN1CCC(Oc2cc3c(cc2F)c(=O)c(C(=O)O)cn3C2CC2)CC1
147 to 148 °C	CCOc1nn(-c2ccc(C(F)(F)F)cn2)cc1CCCOc1cc(OC)ccc1CC(=O)O
75 °C	O=C(c1cccs1)c1ccc(Cl)cc1Cl
153 to 154 °C	COC(=O)c1cccc(CC2COc3ccc(OCc4ccc5ccccc5n4)cc3C2O)c1 (centres undefined)
136 to 137 °C	CCCCNC(=O)CCCCCCCSc1nc(-c2ccccc2)c(-c2ccccc2)[nH]1
146 to 148 °C	CCc1cc(O)c(C(=O)CCc2ccc3occc3c2)c(OC2OC(CO)C(O)C(O)C2O)c1 (centres undefined)
185 °C	CCCC1=C(C(=O)OCC)C(c2c(F)cccc2F)c2c[nH]nc2N1 (centres undefined)
67 to 69 °C	COc1ccc2cc([C@H](C)C(=O)OCCOc3ccc(OCCO[N+](=O)[O-])cc3)ccc2c1
286 to 289 °C	CC1(C)CCC(C)(C)c2cc3c(cc21)CCc1c(-c2ccc(C(=O)O)cc2)ccnc1-3
95 to 96 °C	COc1cc(S(=O)(=O)CCO)ccc1[N+](=O)[O-]
174 to 175 °C	NC(=O)c1nccc(Cl)c1Cl
172 to 173 °C	O=C(CCl)Nc1ccc(NNC(=O)c2ccccc2CO)cc1
> 300 °C	O=C(O)CN1C(=O)C(=Cc2ccc(C(=O)O)cc2)SC1=S
204 to 205 °C	CC(=O)Nc1ccc(OCc2nc3ccc(F)cc3s2)cc1
59 to 61 °C	C=CS(=O)(=O)CS(=O)(=O)C=C
180 to 182 °C	N#Cc1c(N2CCCCC2)cc(-c2ccc3ccc4cccc5ccc2c3c45)c2c1C(=O)c1ccccc1-2
130 to 132 °C	CCCCS(=O)(=O)C1(CCCCN2CCC(N3Cc4ccccc4C3=O)CC2)c2ccccc2-c2ccccc21

melting point	SMILES
126 to 128 °C	CC(=O)CN1C(=O)C(NC(=O)Nc2cccc(C)c2)N=C(C)c2cccc(C)c21 (centres undefined)
318 to 320 °C	Cc1cc(C)c(N[C@@H](C)C(=O)O)c(C)c1
137 to 140 °C	O=C(O)CCCOC(c1ccccc1)(c1ccccc1)c1ccccc1
70 to 75 °C	O=S(=O)(c1ccc(Oc2ccccc2)cc1)c1cccc(S(=O)(=O)c2ccc(Oc3ccccc3)cc2)c1
155 °C	CCCCCC(=O)OCC(=O)C1C(C)CC2C3=C(C(O)CC21C)C1(C)C=CC(=O)C=C1C(F)C3 (centres undefined)
151 to 157 °C	CN1CCN(CCc2nc3cc(Br)c4ccccc4c3n2C)CC1
66 to 67 °C	O=C1CCCCCCCCC=CCCCCCCCCC1O (centres undefined)
194 to 196 °C	NNC(=O)c1ccccc1-c1ccc([N+](=O)[O-])cc1
126 to 129 °C	COc1cccc2c1CCc1c-2nc2ccccc2c1N
56 to 57 °C	CCCCc1c(C=O)ccc2cc(OC)ccc12
195 °C	CCc1c(Br)c2ccccn2c1C(=O)c1cc(Br)c(O)c(Br)c1
115 to 117 °C	O=Cc1ccn(-c2c(Cl)cc(C(F)(F)F)cc2Cl)c(=O)c1
66 to 67 °C	CSc1ccc(CCCOCCCCCCNCC(O)c2ccc(O)c(F)c2)cc1 (centres undefined)
167 to 168 °C	N#Cc1ccc2c(c1)C(=C(Cl)Cl)OC(=C(Cl)Cl)O2
42 to 43 °C	COCOc1ccc(C=O)c2cccc(C)c12
130 to 132 °C	Cc1c(-c2ccc(C(=O)O)cc2)ccc(-c2ccccc2)c1-c1ccc2c(c1)C(C)(C)CCC2(C)C
208 to 209 °C	O=S(=O)(c1ccc(Cl)cc1)C(c1ccncc1)C1CCOCC1 (centres undefined)
128 to 130 °C	CCC(Cc1ccc(OC)c(C(=O)NCc2ccc(C(F)(F)F)cc2)c1)C(=O)O (centres undefined)
172 to 173 °C	N#Cc1ccc2sc3c(c2c1)CC(C=O)CC3 (centres undefined)
166 to 167 °C	CCOCOc1cc(F)ccc1-c1cc(-c2cccc([N+](=O)[O-])c2)c(C#N)c(NC(=O)c2cccs2)n1
195 to 197 °C	CCN(CC)C(=O)c1nc(-c2c(Cl)cc(C(F)(F)F)cc2Cl)[nH]c1C#N
217 to 219 °C	COc1cc(OC)c2c(=O)[nH]c(-c3cccc(-c4ccc(C(=O)N(C)C)cc4)n3)nc2c1
87 to 89 °C	Cc1cc2c(s1)Oc1ccccc1N=C2N1CCN(CCO)CC1

melting point	SMILES
265 to 267 °C	CN1C(=O)c2cscc2Nc2cc(Cl)c(Cl)cc21
133 to 135 °C	CCCCc1nn(-c2cc(NC(=O)CC)ccc2Cl)c(=O)n1Cc1ccc(-c2ccccc2S(=O)(=O)NC(=O)OC(C)(C)C)cc1
46 to 47 °C	CC#CCOc1cc(C=O)ccc1OC(F)F
195 to 197 °C	O=C(O)COc1cccc(C(=O)O)c1OCC(=O)O
76 °C	CCCN(CCC)S(=O)(=O)c1cc(C(=O)CCl)ccc1Cl
51 °C	Cc1cc(OS(=O)(=O)C(F)(F)F)ccc1S(C)(=O)=O
143 to 145 °C	Cc1ccc(C2C(=O)CCCC2=O)c(C)c1
115 to 116 °C	Cn1nc(Cc2ccc([N+](=O)[O-])cc2)oc1=O
124 °C	O=C1N(c2cc(Cl)cc(Cl)c2)C(=O)C2(Cc3ccc(Br)cc3)C[C@@H](c3ccccc3)CN12 (some centres undefined)
205 to 206 °C	CCOC(=O)c1cn(C2CC2)c2nc(N3CCCC(n4ccnn4)C3)c(F)cc2c1=O (centres undefined)
194 to 196 °C	CC1(c2ccc(-c3ccc(F)cc3)cc2)CC(=O)NN1 (centres undefined)
166 to 168 °C	CCn1ccc(OC2c3cc(C#N)ccc3OC(C)(C)C2(C)O)cc1=O (centres undefined)
110 to 111 °C	N#Cc1ccc(Cc2ccc(OCc3ccccc3)cc2)cc1
155 °C	NS(=O)(=O)c1cccc(NC(=O)c2cnn3c(C(F)(F)F)cc(-c4ccc(C(F)(F)F)cc4)nc23)c1
88 to 89 °C	CCCc1nn(-c2ccc(C(F)(F)F)cn2)cc1CCCOc1cc(CC(=O)O)ccc1F
145 °C	CCNc1c(C#N)cnn1-c1ccc(Cl)c(Cl)c1Cl
264 to 265 °C	N=C(N)Nc1nc2cc(Cl)cc(Cl)c2[nH]1
48 °C	N=C(c1ccccc1)c1ccccc1N
235 to 238 °C	Cc1ccc(C(=O)c2[nH]c3cc(Cl)ccc3c2CC(=O)O)nc1
252 to 254 °C	O=C1CCc2cc(OCc3ccccc3)c(O)c([N+](=O)[O-])c21
143 to 144 °C	CCOC(=O)c1cc(C)n(-c2cccc(I)c2)c1-c1ccccc1
148 to 149 °C	O=C(C=Cc1ccccc1O)c1ccccc1
227 to 230 °C	N#Cc1[nH]c2ccc(Br)cc2c1-c1ccccc1

melting point	SMILES
207 to 208 °C	CCCc1cccc2c(/C=C(\C)C(=O)O)cc(OC)c(OC(C)=O)c12
224 to 225 °C	CCN(CC)N(C(C)=O)c1nc2cc3nc(N(C(C)=O)N(CC)CC)sc3cc2s1
183 to 184 °C	CCOC(=O)COc1cc(-c2cc3nccnc3[nH]2)ccc1OC
118 to 119 °C	CC(=O)NCc1ccc(CN2CCN(c3cnccn3)CC2)cc1
188 to 189 °C	CC(C)NCCOc1ccc(-c2nc3ccccc3c(=O)[nH]2)nc1-c1ccc(S(C)(=O)=O)cc1
52 °C	CCN(CC)C(=O)c1cc(-c2ccc(C)cc2)nc2ccccc12
154 to 155 °C	Clc1ccc(N2CCN(Cc3cn4cc(Br)ccc4n3)CC2)cc1
144 to 145 °C	CCCc1nn(C)c2c(=O)n(CCOc3ccc(CC(OCC)C(=O)O)cc3)c(CC)nc12 (single isomer, unassigned; (+))
130 °C	O=P(Oc1cccc(OP(=O)(c2ccccc2)c2ccccc2)c1)(c1ccccc1)c1ccccc1
117 °C	c1ccc(Sc2cc(Sc3ccccc3)ncn2)cc1
134 to 137 °C	CN1CCN(C(=O)Nc2ccccc2CCc2cc(C(C)(C)C)c(O)c(C(C)(C)C)c2)CC1
292 to 293 °C	CCNc1nc(NS(=O)(=O)c2ccc(N)cc2)cc(N2CCC2)n1
251 to 255 °C	Cc1ccc([N+](=O)[O-])c2[nH]cc(CO)c(=O)c12
101 to 103 °C	CC(C)(C)OC(=O)Nc1ccc(Br)cc1
177 to 186 °C	Cc1cccc(C)c1C1C(=O)CC(C)(C)CC1=O
258 to 260 °C	O=S1(=O)c2ccc(O)cc2Oc2cc(F)ccc21
153 °C	O=C1Nc2cccnc2N(CC#CCN2CCCC2)c2ccccc21
145 to 147 °C	CN1CCc2cc(S(=O)(=O)NC(=O)Nc3ccc(Cl)cc3)ccc21
165 to 167 °C	CCOC(=O)c1sc2cc(OCc3cccnc3)ccc2c1Sc1ccccc1N(S(C)(=O)=O)S(C)(=O)=O
190 to 192 °C	CSc1ccc(-n2cnc3ccc(-c4nnc(CC(F)(F)F)o4)cc32)cc1
195 to 196 °C	CCOC(=O)c1ccc(COCc2csc3nc(C(=O)NCc4cccc(CS(C)=O)c4)[nH]c(=O)c23)cc1 (centres undefined)
203 to 206 °C	COC(=O)c1cccc(C2C(C#N)=C(N)Oc3c2ccc2ncccc32)c1 (centres undefined)
163 to 165 °C	CSc1cc2c(cc1C(F)(F)F)N(C(=O)Nc1ccccc1)CC2

SMILES	melting point
O=c1oc2ccccc2c(O)c1C1CC(c2ccc(Oc3ccc(-c4ccc(Cl)cc4)cc3)cc2)Cc2ccccc21 (centres undefined)	132 °C
CC12CCC3C(CC=C4CC(F)CCC43C)C1CCC2=O (centres undefined)	155 to 156 °C
CC(C)C(=O)c1cn(-c2c(Cl)cc(C(F)(F)F)cc2Cl)nc1C#N	168 to 169 °C
CC(C#N)(Cc1c[nH]cn1)c1ccccc1 (centres undefined)	187 to 189 °C
O=S1(=O)c2cccc3cccc(c23)N1CCCN1CC=C(c2c[nH]c3ccccc23)CC1	226 °C
CC(NC(=O)NC1N=C(c2ccccc2)c2ccccc2N(C)C1=O)c1ccccc1 (centres undefined)	146 to 150 °C
COc1ccc(/C=C(/C#N)c2cc(OC)c(OC)c(OC)c2)cc1N	144 to 145 °C
